Results: PMC3242765, “Inhibitors of Alphavirus Entry and Replication Identified with a Stable Chikungunya Replicon Cell Line and Virus-Based Assays” (PLoS ONE, 2011)
Several values for one entry are separate records, joined by “and”; a condition that tells them apart may be missing. Identical values can stand only once. Counter-ions that a name gives are not always drawn. Like-named read-outs stand apart in the source and are kept apart here.

Columns and labels:
SINV = assay: CPE reduction assay, SINV (WST-1); assay type: cell-based, Sindbis virus (SINV); conditions: read-out: SINV IC50 (CPE reduction)
BHK cells = assay: Cell viability ATP assay, BHK cells; assay type: cell-based, hamster; conditions: read-out: Cell viability IC50
SFV [1] = assay: Viral yield analysis using a plaque assay; assay type: cell-based, Semliki Forest virus (SFV); conditions: BHK cells, MOI 0.01, 50 µM compound, 16 h; untreated control 1.4×10^9 PFU/ml
SFV [2] = assay: CPE reduction assay, SFV (WST-1); assay type: cell-based, Semliki Forest virus (SFV); conditions: read-out: SFV IC50 (CPE reduction)
SFV-Rluc [3] = conditions: for IC50: read-out: SFV IC50
SFV-Rluc [4] = assay: microbe, parasite or virus in culture; conditions: Semliki Forest virus, BHK, 14 h, read-out: SFV IC50
CHIKV replicon = assay: microbe, parasite or virus in culture; assay type: cell-based, Chikungunya virus (CHIKV)
CHIKV-Rluc = assay: microbe, parasite or virus in culture; assay type: cell-based, Chikungunya virus (CHIKV); conditions: read-out: CHIKV-Rluc IC50
SFVts9-Rluc = assay type: cell-based, Semliki Forest virus (SFV)
[5] = Mesocricetus auratus, BHK, 48 h
[6] = Semliki Forest virus, BHK, 22 h
[7] = ATP assay, 48 h exposure of BHK cells

SMILES	SFV replication % left (surviving fraction, remaining percentage of SFV replication) (SFV-Rluc [3])	CHIKV replicon % left (CHIKV replicon)	further results
COc1c2ccoc2cc2oc(=O)ccc12 [Bergapten]			IC50 (SINV; Sindbis virus, BHK, 24 h): 16.2 µM; IC50 (BHK cells; [5]): > 200 µM; SFV yield (SFV [1]): 1.2×10^8 PFU/ml; IC50 (SFV [2]; [6]): 9.2 µM; SI (selectivity index) (SFV-Rluc [3]): >24.6; IC50 (SFV-Rluc [4]): 8.1 µM
CCN(CC)c1ccc2cc(-c3nc4ccccc4n3C)c(=O)oc2c1 [Coumarin 30]	12.3%	44.1%	IC50 (SINV; BHK cells, MOI 0.01, 24 h post-infection, WST-1, 200 µM to 0.1 µM): 11.8 µM; IC50 (BHK cells; [7]): 92.4 µM; SFV yield (SFV [1]): 5.0×10^8 PFU/ml; IC50 (SFV [2]; BHK cells, MOI 0.01, 22 h post-infection, WST-1, 200 µM to 0.1 µM): 5.5 µM; IC50 (SFV-Rluc [3]): 0.4 µM; IC50 (CHIKV-Rluc): 6.4 µM
N/C(CC(O)COc1cccc2ccccc12)=N/O (stereo not shown) [Nadoxolol]	20.8%	69.2%	IC50 (SINV; Sindbis virus, BHK, 24 h): 8.2 µM; IC50 (BHK cells; [5]): > 200 µM; SFV yield (SFV [1]): 9.2×10^7 PFU/ml; IC50 (SFV [2]; [6]): 15.2 µM; SI (selectivity index) (SFV-Rluc [3]): >12.2; IC50 (SFV-Rluc [4]): 16.4 µM
CCCOC(=O)c1cc(O)c(O)c(O)c1 [Propyl gallate]			IC50 (BHK cells; [5]): 103 µM; SI (selectivity index) (SFV-Rluc [3]): 5.8; IC50 (SFV-Rluc [4]): 17.9 µM
CN(C)CCC=C1c2ccccc2COc2ccccc21 [Doxepin]			SFV yield (SFV [1]): 3.6×10^8 PFU/ml
O=c1cc(-c2ccccc2)oc2c1ccc1ccccc12 [Alphanaphtoflavone]			IC50 (BHK cells; [7]): > 200 µM; IC50 (SFV-Rluc [3]): 24.1 µM
CN1CCC(CN2c3ccccc3Sc3ccccc32)C1 (stereo not shown) [Methdilazine]	22.5%	19.1%	IC50 (BHK cells; [5]): 63.8 µM; Effect on SFV entry (Rluc activity) (SFVts9-Rluc): decreased the Rluc activity; SI (selectivity index) (SFV-Rluc [3]): 5.6; IC50 (CHIKV-Rluc; Chikungunya virus, BHK, 16 h): 84.5 µM; IC50 (SFV-Rluc [4]): 11.3 µM
CC(=O)c1ccc(O)cc1 [4-Hydroxyacetophenone]	29.4%	94.5%	IC50 (BHK cells; [5]): 164 µM; SI (selectivity index) (SFV-Rluc [3]): 7.8; IC50 (SFV-Rluc [4]): 21.1 µM
CCN(CC)c1ccc2cc(C(=O)c3cccs3)c(=O)oc2c1 [7-Diethylamino-3-thenoylcoumarin]	15.6%	36.9%	IC50 (BHK cells; [7]): 39.1 µM; IC50 (SFV-Rluc [3]): 5.1 µM
Oc1cccc(O)c1O [Pyrogallol]	22.7%	89.2%	IC50 (SINV; Sindbis virus, BHK, 24 h): > 200 µM; IC50 (BHK cells; [5]): > 200 µM; SFV yield (SFV [1]): 1.1×10^9 PFU/ml; IC50 (SFV [2]; [6]): > 200 µM; SI (selectivity index) (SFV-Rluc [3]): >10.7; IC50 (SFV-Rluc [4]): 18.7 µM
O=C(O)c1ccc(O)c(O)c1 [Protocatechuic acid]	21.1%	105.4%	IC50 (SINV; Sindbis virus, BHK, 24 h): > 200 µM; IC50 (BHK cells; [5]): > 200 µM; SFV yield (SFV [1]): 2.4×10^9 PFU/ml; IC50 (SFV [2]; [6]): > 200 µM; SI (selectivity index) (SFV-Rluc [3]): >25.0; IC50 (SFV-Rluc [4]): 8 µM
CC1=CC(=O)c2ccccc2C1=O [Menadione]			IC50 (BHK cells; [5]): 21.9 µM; SI (selectivity index) (SFV-Rluc [3]): 2.8; IC50 (SFV-Rluc [4]): 7.8 µM
C#C[C@]1(O)CC[C@H]2[C@@H]3CCc4cc(O)ccc4[C@H]3CC[C@@]21C [17-Ethinylestradiol]			IC50 (SINV; Sindbis virus, BHK, 24 h): 56.8 µM; IC50 (BHK cells; [5]): > 200 µM; SFV yield (SFV [1]): 9.0×10^8 PFU/ml; IC50 (SFV [2]; [6]): 63 µM; SI (selectivity index) (SFV-Rluc [3]): >21.1; IC50 (SFV-Rluc [4]): 9.5 µM
CSc1ccc2c(c1)N(CCC1CCCCN1C)c1ccccc1S2 (stereo not shown) [Thioridazine, reference compound]	11.6%	95.4%	SFV yield (SFV [1]): 6.8×10^8 PFU/ml; Effect on SFV entry (Rluc activity) (SFVts9-Rluc): decreased the Rluc activity
OCCN1CCN(CCCN2c3ccccc3C=Cc3ccccc32)CC1 [Opipramol]	27.5%	101.5%	IC50 (SINV; Sindbis virus, BHK, 24 h): 31 µM; IC50 (BHK cells; [5]): > 200 µM; SFV yield (SFV [1]): 2.5×10^8 PFU/ml; IC50 (SFV [2]; [6]): 25 µM; SI (selectivity index) (SFV-Rluc [3]): >10.2; IC50 (SFV-Rluc [4]): 19.7 µM
COc1ccc(Cc2nccc3cc(OC)c(OC)cc23)cc1OC [Papaverine]	99.3%	78.2%	
Cc1ccnc(NS(=O)(=O)c2ccc(N)cc2)n1 [Sulfamerazine]	83.8%	91.1%	
CCCCNc1ccc(C(=O)OCCN(C)C)cc1 [Tetracaine hydrochloride]	102.8%	71.1%	
COc1cc2ccc(=O)oc2cc1O [Scopoletin]	81.9%	95.4%	
CN(C)CCCN1c2ccccc2Sc2ccc(Cl)cc21 [Chlorpromazine]			IC50 (BHK cells; [5]): 67.3 µM; Effect on SFV entry (Rluc activity) (SFVts9-Rluc): decreased the Rluc activity; IC50 (CHIKV-Rluc; Chikungunya virus, BHK, 16 h): 39.4 µM; IC50 (SFV-Rluc [4]): 15.7 µM
O=c1cc(O)c2ccccc2o1 [4-Hydroxycoumarin]	100.2%	95.4%	
C[C@@H]1O[C@@H](Oc2c(-c3ccc(O)c(O)c3)oc3cc(O)cc(O)c3c2=O)[C@H](O)[C@H](O)[C@H]1O [Quercitrin]			IC50 (BHK cells; [5]): > 200 µM; SI (selectivity index) (SFV-Rluc [3]): >8.4; IC50 (SFV-Rluc [4]): 23.7 µM

SMILES	SFV replication % left (surviving fraction, remaining percentage of SFV replication) (SFV-Rluc [3])	CHIKV replicon % left (CHIKV replicon)	further results
O=c1cc(-c2ccccc2)oc2c1ccc1ccccc12 [Alphanaphthoflavone]	14.6%	30.8%	
CC[C@@]1(O)C(=O)OCc2c1cc1n(c2=O)Cc2cc3ccccc3nc2-1 [Camptothecin]	87.7%	100.4%	
CC(O)Cn1cnc2c1c(=O)n(C)c(=O)n2C (stereo not drawn) [7-(β-Hydroxypropyl)theophylline]	125.5%	70.9%	
CS(=O)(=O)OCCCCOS(C)(=O)=O [Busulfan]	51.8%	100.5%	
CCCCCCCCCCCCOC(=O)c1cc(O)c(O)c(O)c1 [Lauryl gallate]	12.3%	6.1%	
O=c1ccc2ccc(O)cc2o1 [Umbelliferone]	93.1% and 78.4%	106.5% and 100.7%	
COc1cc(O)c2c(=O)c(OC)c(-c3ccc(OC)c(OC)c3)oc2c1 [Quercetin-3,7,3',4'-tetramethylether]	65.0%	58.2%	
COC(=O)C1=CCCN(C)C1 [Arecoline hydrobromide]	83.6%	101.1%	
O=c1oc2c(O)c(O)cc3c(=O)oc4c(O)c(O)cc1c4c23 [Ellagic acid]	64.9%	71.1%	
CCCCNC(=O)c1ccc(Cl)cc1O [Buclosamide]	49.6%	100.6%	
CC(C)(C)NC[C@H](O)COc1ccccc1C1CCCC1 [Penbutolol]	45.0%	39.4%	
CC(=O)c1ccccc1O [2-Hydroxyacetophenone]	129.7%	99.4%	
c1ccc(CN(CC2=NCCN2)c2ccccc2)cc1 [Antazoline hydrochloride]	38.7%	100.5%	
CC(=O)c1cccc(O)c1 [3-Hydroxyacetophenone]	125.8%	97.4%	
CCOc1ccc(NC(C)=O)cc1 [Phenacetin]	71.8% and 80.6%	100.8% and 94.3%	
COc1cc2ccc(=O)oc2c(O)c1OC [Fraxidin]	77.8%	104.3%	
CC(=O)Nc1ccc(OCC(O)CNC(C)C)cc1 (stereo not shown) [Practolol]	117.3%	61.5%	
CCOc1ccc2c(c1)C(C)=CC(C)(C)N2 [Ethoxyquin]	96.4%	83.6%	
COc1cc(C(=O)O)cc(OC)c1OC [3,4,5-Trimethoxybenzoic acid]	34.0%	28.8%	
Nc1ccc(S(=O)(=O)Nc2ncccn2)cc1 [Sulfadiazine]	107.7%	81.2%	
Oc1ccccc1O [Catechol]	58.4%	77.7%	
CCN(CC)CCOC(=O)c1ccc(N)cc1 [Procaine hydrochloride]	105.4%	84.3%	
